Measurements taken from patent US20250034105A1, “IS[…] N-METHYL-1,3-BENZODIOXOLYLBUTANAMINE (MBDB) AND STEREOISOMERS THEREOF” (Terran Biosciences Inc., priority 2021, published 2025).

Experiment: Metabolic stability in human liver microsomes
Assay type: in vitro ADME
Details: for CLint / t1/2: NADPH; for CLint / t1/2 / half-life at 0.25 μM / microsomal CLint at 0.25 μM: 37° C.; for differences in half-life and intrinsic clearance compared to S-MBDB HCl salt (reference compound) / differences in half-life and intrinsic clearance compared to R-MBDB HCl salt (reference compound) / differences in half-life and intrinsic clearance compared to rac-MBDB HCl salt (reference compound): based on Table Ex7; for half-life at 0.25 μM / microsomal CLint at 0.25 μM: pH 7.4, NADPH
Method: Microsomal Assay: Human liver microsomes (20 mg/mL) were obtained. β-nicotinamide adenine dinucleotide phosphate, reduced form (NADPH), magnesium chloride (MgCl2), and dimethyl sulfoxide (DMSO) were purchased from Sigma-Aldrich. Determination of Metabolic Stability: 7.5 mM stock solutions of test compounds of the above structural formula (e.g., of an embodiment or aspect of embodiment thereof described herein), or pharmaceutically acceptable salt thereof, are prepared in DMSO. […] The diluted microsomes were added to wells of a 96-well deep-well polypropylene plate in triplicate. […] Reactions were initiated by addition of pre-warmed NADPH solution. The final reaction volume is 0.5 mL and contains 4.0 mg/mL human liver microsomes, 0.25 μM test compound, and 2 mM NADPH in 0.1 M potassium phosphate buffer, pH 7.4, and 3 mM MgCl2. The reaction mixtures were incubated at 37° C., and 50 pL aliquots were removed at 0, 5, 10, 20, and 30 minutes and added to shallow-well 96-well plates which contain 50 pL of ice-cold ACN (acetonitrile) with internal standard to stop the reactions. The plates were stored at 4° C. for 20 minutes after which 100 pL of water was added to the wells of the plate before centrifugation to pellet precipitated proteins. Supernatants were transferred to another 96-well plate and analyzed for amounts of parent remaining by LC-MS/MS using an Applied Bio-systems API 4000 mass spectrometer. The same procedure was followed for the non-enriched counterpart of the compound and the positive control, 7-ethoxycoumarin (1 μM). Testing was done in triplicate.
Data analysis: The in vitro T1/2s for test compounds were calculated from the slopes of the linear regression of % parent remaining (In) vs incubation time relationship.
k=−[slope of linear regression of % parent remaining (In) vs incubation time] The apparent intrinsic clearance was calculated using the following equation: […]

Row | Structure (SMILES) | CLint [μL/min/mg protein] | t1/2 [h] | differences in half-life and intrinsic clearance compared to S-MBDB HCl salt (reference compound) | half-life at 0.25 μM [h] | microsomal CLint at 0.25 μM [µL/min/mg] | differences in half-life and intrinsic clearance compared to R-MBDB HCl salt (reference compound) | differences in half-life and intrinsic clearance compared to rac-MBDB HCl salt (reference compound)
1 | CC[C@H](Cc1ccc2c(c1)OCO2)NC.Cl [R-MBDB HCl salt] | 11.7 | 1.98 | – | – | – | – | –
2 | Cl.[2H]C([2H])([2H])N[C@@H](CC)Cc1ccc2c(c1)OCO2 [Compound 3, (2S)-1-(1,3-Benzodioxol-5-yl)-N-(trideuteriomethyl)butan-2-amine hydrochloride] | – | – | demonstrates differences | 2.88 | 8.04 | – | –
3 | Cl.[2H]C1([2H])Oc2ccc(C[C@@H](CC)NC)cc2O1 [Compound 7, (2R)-1-(2,2-Dideuterio-1,3-benzodioxol-5-yl)-N-methyl-butan-2-amine hydrochloride] | – | – | – | 0.628 | 36.7 | significant differences | –
4 | Cl.[2H]C([2H])([2H])N[C@H](CC)Cc1ccc2c(c1)OCO2 [Compound 1, (2R)-1-(1,3-Benzodioxol-5-yl)-N-(trideuteriomethyl)butan-2-amine hydrochloride] | – | – | – | 1.61 | 14.3 | significant differences | –
5 | Cl.[2H]C([2H])([2H])NC(CC)Cc1ccc2c(c1)OC([2H])([2H])O2 (racemic) [Compound 4, 1-(2,2-Dideuterio-1,3-benzodioxol-5-yl)-N-(trideuteriomethyl)butan-2-amine hydrochloride] | – | – | – | 0.7 | 33 | – | significant differences
6 | COc1ccc2c(c1)[C@]13CCCC[C@@H]1[C@H](C2)N(C)CC3 [dextromethorphan] | 53.4 | – | – | – | – | – | –
7 | CCC(Cc1ccc2c(c1)OCO2)NC.Cl (racemic) [rac-MBDB HCl salt] | 11.9 | 1.93 | – | – | – | – | –
8 | Cl.[2H]C([2H])([2H])N[C@H](CC)Cc1ccc2c(c1)OC([2H])([2H])O2 [Compound 5, (2R)-1-(2,2-Dideuterio-1,3-benzodioxol-5-yl)-N-(trideuteriomethyl)butan-2-amine hydrochloride] | – | – | – | 0.405 | 57.1 | significant differences | –
9 | CC[C@@H](Cc1ccc2c(c1)OCO2)NC.Cl [S-MBDB HCl salt] | 8.06 | 2.87 | – | – | – | – | –
10 | Cl.[2H]C1([2H])Oc2ccc(C[C@H](CC)NC)cc2O1 [Compound 9, (2S)-1-(2,2-Dideuterio-1,3-benzodioxol-5-yl)-N-methyl-butan-2-amine hydrochloride] | – | – | significant differences | 0.867 | 26.7 | – | –
11 | Cl.[2H]C([2H])([2H])NC(CC)Cc1ccc2c(c1)OCO2 (racemic) [Compound 2, 1-(1,3-Benzodioxol-5-yl)-N-(trideuteriomethyl)butan-2-amine hydrochloride] | – | – | – | 1.87 | 12.4 | – | demonstrates differences
12 | Cl.[2H]C1([2H])Oc2ccc(CC(CC)NC)cc2O1 (racemic) [Compound 8, 1-(2,2-Dideuterio-1,3-benzodioxol-5-yl)-N-methyl-butan-2-amine hydrochloride] | – | – | – | 1.34 | 17.2 | – | significant differences
13 | Cl.[2H]C([2H])([2H])N[C@@H](CC)Cc1ccc2c(c1)OC([2H])([2H])O2 [Compound 6, (2S)-1-(2,2-Dideuterio-1,3-benzodioxol-5-yl)-N-(trideuteriomethyl)butan-2-amine hydrochloride] | – | – | significant differences | 0.91 | 25.4 | – | –
